Experimental data reported in ChEMBL document CHEMBL1201862, “PubChem BioAssay data set” (2004).
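Grown in 96-well plates, cells were treated for 48 hours with each compound at five concentrations. Insufficient inhibition: endpoint recorded as highest concentration tested. The concentration for 50% growth inhibition is given as GI50.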 Calls of active or inactive are those of the source. Cut-off read from the data, not from the text of the source: active = GI50 up to about 1.1 µM and inactive = higher.

How the values were obtained:
Test in all cases: growth of human tumour cells (NCI), 48 h
BT-549 = system: BT-549
CAKI-1 = system: CAKI-1
COLO 205 = system: COLO 205
DU-145 = system: DU-145
HCT-15 = system: HCT-15
HOP-92 = system: HOP-92
Hs-578T = system: Hs-578T
IGROV-1 = system: IGROV-1
K562 = system: K562
M14 = system: M14
NCI/ADR-RES = system: NCI/ADR-RES
OVCAR-4 = system: OVCAR-4
RXF 393 = system: RXF 393
SK-MEL-2 = system: SK-MEL-2
SK-MEL-5 = system: SK-MEL-5
SR = system: SR
SW-620 = system: SW-620
U-251 = system: U-251
NCI-H226 = system: NCI-H226
SF-539 = system: SF-539

Compound	GI50 (BT-549)	GI50 (CAKI-1)	GI50 (COLO 205)	GI50 (DU-145)	GI50 (HCT-15)	GI50 (HOP-92)	GI50 (Hs-578T)	GI50 (IGROV-1)	GI50 (K562)	GI50 (M14)	GI50 (NCI/ADR-RES)	GI50 (OVCAR-4)	GI50 (RXF 393)	GI50 (SK-MEL-2)	GI50 (SK-MEL-5)	GI50 (SR)	GI50 (SW-620)	GI50 (U-251)	GI50 (NCI-H226)	GI50 (SF-539)
COc1ccc(CN2C[C@H]3[C@@H](CC(=O)O[C@H]3C)CC2=O)cc1	> 100 µM (inactive)	> 100 µM (inactive)	> 100 µM (inactive)	> 100 µM (inactive)	> 100 µM	> 100 µM (inactive)	> 100 µM (inactive)	> 100 µM (inactive)	> 100 µM (inactive)	> 100 µM (inactive)	> 100 µM (inactive)	> 100 µM (inactive)	> 100 µM (inactive)	> 100 µM (inactive)	> 100 µM (inactive)	> 100 µM (inactive)	> 100 µM (inactive)	> 100 µM (inactive)		
O=Cc1c2n(c3ccccc13)N[C@@](Cc1ccc(O)cc1)(C(=O)O)C2	> 100 µM (inactive)	> 100 µM (inactive)	> 100 µM (inactive)	> 100 µM (inactive)	47.3 µM	> 100 µM (inactive)	> 100 µM (inactive)	> 100 µM (inactive)	97.3 µM (inactive)	65.6 µM (inactive)	35.9 µM (inactive)	68.7 µM (inactive)		> 100 µM (inactive)	> 100 µM (inactive)	38.1 µM (inactive)	56.8 µM (inactive)	> 100 µM (inactive)	> 100 µM (inactive)	> 100 µM (inactive)
CC(=O)NC1C(OCc2ccccc2)OC(CO)C(O)C1OCC(=O)N[C@@H](C)C(=O)N[C@H](CCC(=O)NCCNCCNc1c2ccccc2nc2cccc([N+](=O)[O-])c12)C(N)=O (some centres undefined)	> 10 µM (inactive)	22.6 µM (inactive)	25 µM (inactive)	36.6 µM (inactive)	22.6 µM	20.7 µM (inactive)	22.5 µM (inactive)	8.87 µM (inactive)	32.3 µM (inactive)	56 µM (inactive)	> 100 µM (inactive)	17.3 µM (inactive)	36.4 µM (inactive)	22.3 µM (inactive)	17.8 µM (inactive)	18.1 µM (inactive)	39.1 µM (inactive)	34.3 µM (inactive)		33.3 µM (inactive)
CCC1=NC(C(F)(F)F)(C(F)(F)F)N=C(/N=C(/N)N(C)C(C(C)C)P(=O)(OC(C)C)OC(C)C)O1 (centres undefined)	> 100 µM (inactive)	> 100 µM (inactive)	> 100 µM (inactive)	> 100 µM (inactive)	> 100 µM		> 100 µM (inactive)	> 100 µM (inactive)	> 100 µM (inactive)	> 100 µM (inactive)	> 100 µM (inactive)	> 100 µM (inactive)	> 100 µM (inactive)	> 100 µM (inactive)	> 100 µM (inactive)	> 100 µM (inactive)	> 100 µM (inactive)	> 100 µM (inactive)	> 100 µM (inactive)	> 100 µM (inactive)
CSc1nc(NC(C)C)c2c(n1)Sc1nc3ccccc3n1C2O (centres undefined)	6.79 µM (inactive)	82.4 µM (inactive)	1.65 µM (inactive)	3.18 µM (inactive)	4.1 µM	89.5 µM (inactive)	2.79 µM (inactive)	8.04 µM (inactive)	3.15 µM (inactive)	5.96 µM (inactive)	2.56 µM (inactive)	4.98 µM (inactive)	3.86 µM (inactive)	7.73 µM (inactive)		2.84 µM (inactive)	2.27 µM (inactive)	3.11 µM (inactive)		
CCn1nc2c3c(ncn3C(C)(C)O2)c1=O	> 100 µM (inactive)	> 100 µM (inactive)	> 100 µM (inactive)	> 100 µM (inactive)	> 100 µM	> 100 µM (inactive)	> 100 µM (inactive)	> 100 µM (inactive)	> 100 µM (inactive)	> 100 µM (inactive)	> 100 µM (inactive)	> 100 µM (inactive)	> 100 µM (inactive)	> 100 µM (inactive)	> 100 µM (inactive)	> 100 µM (inactive)	> 100 µM (inactive)	> 100 µM (inactive)	> 100 µM (inactive)	
O=c1oc2ccc3ccccc3c2cc1-c1nnc(Nc2ccccc2)s1	33.5 µM (inactive)	34 µM (inactive)		24.5 µM (inactive)	51.6 µM		65 µM (inactive)		51.5 µM (inactive)	37.2 µM (inactive)	52.5 µM (inactive)	20 µM (inactive)	15.8 µM (inactive)	18.9 µM (inactive)		19.3 µM (inactive)		7.59 µM (inactive)		
CN(Cc1cnc2nc(N)nc(N)c2n1)c1ccc(C(=O)NC(CCC(=O)NC(CC(P(=O)(O)O)P(=O)(O)O)C(=O)O)C(=O)O)cc1 (centres undefined)	> 100 µM (inactive)		> 100 µM (inactive)	> 100 µM (inactive)	> 100 µM	> 100 µM (inactive)	> 100 µM (inactive)	> 100 µM (inactive)		> 100 µM (inactive)	> 100 µM (inactive)	> 100 µM (inactive)	> 100 µM (inactive)	> 100 µM (inactive)	> 100 µM (inactive)	> 100 µM (inactive)	> 100 µM (inactive)	> 100 µM (inactive)	> 100 µM (inactive)	
CC(=O)N1C(C(=O)NN2CCOCC2)CSC1c1ccccc1 (centres undefined)	> 100 µM (inactive)	> 100 µM (inactive)	> 100 µM (inactive)	> 100 µM (inactive)	> 100 µM	> 100 µM (inactive)	> 100 µM (inactive)	> 100 µM (inactive)	> 100 µM (inactive)	> 100 µM (inactive)	> 100 µM (inactive)	> 100 µM (inactive)		> 100 µM (inactive)	> 100 µM (inactive)	> 100 µM (inactive)	> 100 µM (inactive)	> 100 µM (inactive)	> 100 µM (inactive)	> 100 µM (inactive)
Cc1c(-c2ccccc2)c(C#N)c2nnc(C(N)=O)c(N)n12	> 100 µM (inactive)	> 100 µM (inactive)	> 100 µM (inactive)	> 100 µM (inactive)	> 100 µM		> 100 µM (inactive)	> 100 µM (inactive)	> 100 µM (inactive)	> 100 µM (inactive)	> 100 µM (inactive)	> 100 µM (inactive)	> 100 µM (inactive)	> 100 µM (inactive)	> 100 µM (inactive)	> 100 µM (inactive)	> 100 µM (inactive)	> 100 µM (inactive)		> 100 µM (inactive)
CC#Cc1cc2c(cc1O)CC[C@@H]1[C@@H]2CC[C@]2(C)[C@@H](O)CC[C@@H]12	11.9 µM (inactive)	0.766 µM (active)	17.7 µM (inactive)	3.43 µM (inactive)	0.34 µM	11.8 µM (inactive)	1.11 µM (active)	4.54 µM (inactive)	0.344 µM (active)	0.521 µM (active)	0.885 µM (active)	12.8 µM (inactive)	2.45 µM (inactive)	1.06 µM (active)	0.484 µM (active)	0.288 µM (active)	0.655 µM (active)	0.748 µM (active)	2.8 µM (inactive)	
O=C1/C(=C/c2ccc(Br)s2)NC(=S)N1CN1CCCCC1	25.9 µM (inactive)	32.4 µM (inactive)	18.1 µM (inactive)	38.1 µM (inactive)	27.9 µM		51.4 µM (inactive)	42.1 µM (inactive)	23.1 µM (inactive)		28.8 µM (inactive)	36.8 µM (inactive)	21.1 µM (inactive)	0.678 µM (active)	0.317 µM (active)	15.8 µM (inactive)	33 µM (inactive)	28.8 µM (inactive)	32 µM (inactive)	
Nc1nc(NCC2(CO)CCC2)cc(=O)[nH]1	> 100 µM (inactive)	> 100 µM (inactive)	> 100 µM (inactive)	> 100 µM (inactive)	> 100 µM	> 100 µM (inactive)	> 100 µM (inactive)	> 100 µM (inactive)	> 100 µM (inactive)	> 100 µM (inactive)	> 100 µM (inactive)	> 100 µM (inactive)	> 100 µM (inactive)	> 100 µM (inactive)	> 100 µM (inactive)	> 100 µM (inactive)	> 100 µM (inactive)	> 100 µM (inactive)	> 100 µM (inactive)	
CSC1=C(SC)SC(=C2SC3=C(SC(=C4SCCS4)S3)S2)S1	> 100 µM (inactive)	> 100 µM (inactive)	> 100 µM (inactive)	> 100 µM (inactive)	> 100 µM	> 100 µM (inactive)	> 100 µM (inactive)	> 100 µM (inactive)		> 100 µM (inactive)	> 100 µM (inactive)	> 100 µM (inactive)		> 100 µM (inactive)	> 100 µM (inactive)	> 100 µM (inactive)	> 100 µM (inactive)	> 100 µM (inactive)	> 100 µM (inactive)	> 100 µM (inactive)
Cc1ccc2nc(-c3ccccc3)cc(=O)n2c1	> 100 µM (inactive)		> 100 µM (inactive)	> 100 µM (inactive)	> 100 µM	> 100 µM (inactive)	> 100 µM (inactive)	> 100 µM (inactive)	> 100 µM (inactive)	> 100 µM (inactive)	69.7 µM (inactive)	> 100 µM (inactive)	> 100 µM (inactive)		> 100 µM (inactive)	> 100 µM (inactive)	> 100 µM (inactive)	> 100 µM (inactive)	64.6 µM (inactive)	> 100 µM (inactive)
